Legend:
fire ant workers [1] = test: Example 14 feeding experiments: fire ant worker mortality
fire ant workers [2] = test: Five biogenic amines fed to fire ant workers as droplets; format: in vivo, Solenopsis invicta; settings: 1% (w/v) as HCl salts in 10% sucrose, 48 h, 60 workers
Procedure: Tyramine is one of five biogenic amines that may be found in insects (e.g., dopamine, histamine, octopamine, serotonin, and tyramine). The experiment in this example tests whether fire ant worker mortality effects observed with tyramine may be a general result of the ants ingesting greater than normal amounts of a biogenic amine. To test this hypothesis groups of 20 fire ant worker ants were starved for 24 hours and fed a 1% (w/v) biogenic amine in 10% sucrose solution. Treatments and sucrose were presented to the worker ants as a 25 microliter droplet on a 2 cm^2 piece of silicon treated filter paper. Each treatment and control were performed in triplicate for a total of 60 worker ants per treatment and control. Mortality was monitored for the first 7-8 h after introduction of the sucrose solutions, then at 24 h. The feeding/monitoring sequence was repeated for another 24 h period for a total of 48 h. The results are shown in FIG. 12A-12B in the form of Kaplan-Meier mortality curves.

female sexuals (alates) = test: Worker attraction to poison sac extracts of dealates (queen pheromone bioassay); format: in vivo, Solenopsis invicta; settings: extracts from dealates of fed sub-colonies

Row | Structure (SMILES) | fire ant worker mortality versus 10% sucrose control (fire ant workers [1]; 1.0% in 10% sucrose) | worker mortality (Kaplan-Meier) (fire ant workers [2]) | also measured
1 | COc1ccccc1CCN [2-methoxy-phenethylamine] | No difference in mortality | – | –
2 | COc1ccc(CCN)cc1Cl [3-chloro-4-methoxyphenethylamine] | significantly different from the 10% sucrose control | – | fire ant worker mortality versus 10% sucrose control (fire ant workers [1]; 0.1% in 10% sucrose): significantly different from the 10% sucrose control; mortality (fire ant workers [1]; 1.0 and 0.1% in 10% sucrose): about 8%
3 | COc1cccc(CCN)c1 [3-methoxy-phenethylamine] | No difference in mortality | – | –
4 | NCCc1ccc(Br)cc1 [4-bromophenethylamine, 4-bromo-phenethylamine] | Significant, but low, worker mortality | – | –
5 | NCCc1ccc(Cl)cc1 [4-chlorophenethylamine, 4-chloro-phenethylamine] | Significant, but low, worker mortality | – | –
6 | NCCc1ccc(F)cc1 [4-flurophenethylamine] | Significant, but low, worker mortality | – | –
7 | COc1ccc(CCN)cc1 [4-methoxy-phenethylamine] | No difference in mortality | – | –
8 | CN(C)CCc1ccc(O)cc1 [N,N-dimethyl-tyramine] | no difference in mortality | – | –
9 | CNCCc1ccc(O)cc1.Cl [N-methyl-tyramine (HCl)] | significantly different from the sucrose control | – | fire ant worker mortality versus 10% sucrose control (fire ant workers [1]; 0.01% in 10% sucrose): significantly different from the sucrose control; speed of worker mortality versus tyramine at the same concentration (fire ant workers [1]; 0.01%, p<0.01): significantly faster than the 0.01% tyramine; fire ant worker mortality versus 10% sucrose control (fire ant workers [1]; 0.1% in 10% sucrose): significantly different from the sucrose control; speed of worker mortality versus tyramine at the same concentration (fire ant workers [1]; 0.1%, p=0.22): not significantly faster than the 0.1% tyramine; speed of worker mortality versus tyramine at the same concentration (fire ant workers [1]; 1.0%, p<0.001): significantly faster worker mortality than the 1.0% tyramine; speed of action compared to the N-methyl tyramine free-base (fire ant workers [1]; in vivo): appears to be quicker acting
10 | NCCc1ccc(O)c(O)c1 [dopamine] | – | did not result in significant mortality | –
11 | NCCc1c[nH]cn1 [histamine] | – | did not result in significant mortality | –
12 | NCC(O)c1ccc(O)cc1 (stereo not drawn) [octopamine] | – | did not result in significant mortality | –
13 | NCCc1c[nH]c2ccc(O)cc12 [serotonin] | – | did not result in significant mortality | –
14 | Cl.NCCc1ccc(O)cc1 [tyramine HCl] | – | statistically greater mortality than the control and the other 4 biogenic amines | worker attraction to poison sac extracts compared among active treatments (female sexuals (alates)): not different from tyramine or N-methyl tyramine; worker attraction to poison sac extracts versus N,N-dimethyl tyramine treatment and controls (female sexuals (alates)): significantly different from those from the N,N-dimethyl tyramine treatment and the sucrose and hexane controls

Source: patent US10568320B2, “Biologically-based control methods for insect pests” (The United States of America, as represented by the …, priority 2017, dated 2020)
